Experimental findings from US6403112B2, “Ectoin and ectoin derivatives as moisturizers in cosmetics” (Merck Patent Gesellschaft mit beschrankter, priority 1993, dated 2002) are described below.

The nature of this data set: Water absorption capacity at 65% relative atmospheric humidity. Format: physicochemical. The following applies: relative atmospheric humidity of 65%; 1 g of anhydrous substance kept in sealed chamber until weight is constant. On the procedure:
A) Water absorption capacity The water absorption capacity of the compound of Example 1 is determined at a relative atmospheric humidity of 65%. The control substances used are in each case glycerol and propylene glycol. In each case 1 g of the anhydrous substance is kept in a sealed chamber until the weight is constant. The water absorption capacity is calculated as follows: [formula] Ectoin has a water absorption of 25% and, in comparison with glycerol or propylene glycol (60 and 45%, respectively) a less pronounced hygroscopic behavior. However, with regard to its use as a moisturizer, the dehydrating effect known from unduly high glycerol concentrations can be ruled out.
For `OCC(O)CO` [glycerol], the water absorption is reported as 60%.

`CC(O)CO` (stereo not drawn) [propylene glycol]: the water absorption was determined as 45%. Turning to `CC1=N[C@H](C(=O)O)CCN1` [Ectoin, (S)-1,4,5,6-tetrahydro-2-methyl-4-pyrimidinecarboxylic acid], the water absorption was found to be 25%.
